Data: PubChem BioAssay AID2060611 (Molecular Pharmacology Branch, DTP, NCI, 2025)
Values joined by “and” are separate entries in the source; they are usually repeats but may differ in a detail not shown here. Equal entries are not always repeated.

Test system: 628569-122-R-J1-PDC complex spheroid viability
Assay: Anticancer human tumor 628569-122-R-J1-PDC patient-derived head and neck squamous carcinoma cell line growth inhibition [CLK]
Conditions: for viability, T/C: stronger effect = lower value; active means viability on the fitted dose curve at most 10% of control; inactive means the rest
Excerpt: A high-throughput screen of multi-cell type tumor spheroids was designed to identify active combinations of […] and targeted small molecules. Complex spheroids include a stromal component modeled by human endothelial cells (HUVEC) and fibroblasts modeled by human mesenchymal stem cells (MSCs). The concentration ranges selected for each drug and investigational agent were based upon clinically achievable concentrations if the clinical Cmax of the agent was known.
Compounds. The drugs and investigational agents: cirtuvivint (SM08502; NSC835563), CC-671 (NSC850746), vemurafenib (NSC761431), tapotoclax (NSC804041), sotorasib (NSC818433), adagrasib (NSC831453), MRTX-1133 (NSC836407), BAY2416964 (NSC825713), copanlisib (NSC816437), inavolisib (NSC800729), abemaciclib (NSC768073), osimertinib (NSC779217), entinostat (NSC756642), eltanexor (KPT-8602, NSC794443), venetoclax (NSC766270), ceralasertib (NSC777638), bortezomib (NSC756655), olaparib (NSC753686), talazoparib (NSC767125), alisertib (NSC759677), peposertib (NSC802822), gemcitabine (NSC613327), 5-fluorouracil (NSC19893), SN-38 (NSC673596), oxaliplatin (NSC266046), paclitaxel (NSC125973), and doxorubicin (NSC123127), were obtained from the National Cancer Institute (NCI) Developmental Therapeutics Program Chemical Repository. The FDA-approved anticancer drug set is available from the Developmental Therapeutics Program at https://dtp.cancer.gov/organization/dscb/obtaining/available plates.htm. […] The stock solutions were prepared in dimethyl sulfoxide (DMSO, Sigma-Aldrich, St. Louis, MO, cat. D2650), except for the platinum complexes which were prepared in saline (Quality Biological, Gaithersburg, MD, cat. 114-055-101), at 800-fold the tested concentration and stored at -70 degrees C prior to their use. All drugs and investigational agents were tested over a range starting from a high concentration at or near the clinical Cmax and decreasing in half-log increments. If the clinical Cmax for an agent had not been determined, the highest concentration tested was 10 microM.
Cell Culture. All cells were maintained in an incubator at 37 degrees C and 5% CO2 with 95% humidity. The PDC lines were cultured according to standard operating procedures established by the NCI PDMR. Briefly, all PDCs were thawed and cultured in Matrigel-coated flasks prepared with a working solution of 1X Ham's F-12 nutrient mix, without supplementation (Invitrogen, Waltham, MA, cat. 11765054), 100 U/mL penicillin-streptomycin (Invitrogen, cat. 15140122), and 2.5% Matrigel (Corning Inc., Corning, NY, cat. 354248) for the first three passages. The 947758-054-R-J2-PDC line was cultured in 6B/Colon 1A media, which includes advanced DMEM/F-12 (Thermo Fisher Scientific, cat. 12634028), 10 mM HEPES (Thermo Fisher Scientific, cat. 15630080), 1X GlutaMAX supplement (Thermo Fisher Scientific, cat. 35050061), 0.1 mg/mL primocin (InvivoGen, cat. ant-pm-2), 10% defined fetal bovine serum, heat inactivated (HyClone Laboratories Inc., cat. SH30070.03HI), 1.25 mM N-Acetyl-L-cysteine (Sigma-Aldrich, cat. A9165), 10 mM nicotinamide (Sigma-Aldrich, cat. N0636), 1X B-27 supplement (Thermo Fisher Scientific, cat. 17504044), 1X N-2 supplement (Thermo Fisher Scientific, cat. 17502048), and 10 microM Y-27632 dihydrochloride (Tocris Bioscience, cat. 1254). The 876862-298-R-J1-PDC was cultured in 6E media, which includes all 6B/Colon 1A media components plus 50% L-WRN conditioned media (ATCC, cat. CRL-3276), 50 ng/mL recombinant human EGF recombinant protein (hEGF; Thermo Fisher Scientific, cat. PHG0311), 10 ng/mL recombinant human fibroblast growth factor 10 (hGFG-10; PeproTech, cat. 100-26), 1 ng/mL recombinant human fibroblast growth factor 2 (hFGF-2; PeproTech, cat. 100-18B), and 1 µM prostaglandin E2 (PGE2; Tocris, cat. 2296). The 227483-062-R1-J1-PDC line was cultured in Panc media, containing all 6E components except hFGF-2, with the addition of 500 nM SB-431542 (Selleckchem, cat. S1067) and 10 nM gastrin (Tocris, cat. 3006). […]

[1] = curve of first compound, second compound 0.0316 µM
[2] = curve of first compound, second compound 0.1 µM
[3] = curve of first compound, second compound 0.316 µM
[4] = curve of first compound, second compound 1 µM
[5] = curve of first compound, second compound 3.16 µM
[6] = curve of first compound, second compound 10 µM
[7] = second compound 0.0316 µM, first compound 0.0316 µM
[8] = second compound 0.0316 µM, first compound 0.1 µM
[9] = second compound 0.0316 µM, first compound 0.316 µM
[10] = second compound 0.0316 µM, first compound 1 µM
[11] = second compound 0.0316 µM, first compound 3.16 µM
[12] = second compound 0.0316 µM, first compound 10 µM
[13] = second compound 0.1 µM, first compound 0.0316 µM
[14] = second compound 0.1 µM, first compound 0.1 µM
[15] = second compound 0.1 µM, first compound 0.316 µM
[16] = second compound 0.1 µM, first compound 1 µM
[17] = second compound 0.1 µM, first compound 3.16 µM
[18] = second compound 0.1 µM, first compound 10 µM
[19] = second compound 0.316 µM, first compound 0.0316 µM
[20] = second compound 0.316 µM, first compound 0.1 µM
[21] = second compound 0.316 µM, first compound 0.316 µM
[22] = second compound 0.316 µM, first compound 1 µM
[23] = second compound 0.316 µM, first compound 3.16 µM
[24] = second compound 0.316 µM, first compound 10 µM
[25] = second compound 1 µM, first compound 0.0316 µM
[26] = second compound 1 µM, first compound 0.1 µM
[27] = second compound 1 µM, first compound 0.316 µM
[28] = second compound 1 µM, first compound 1 µM
[29] = second compound 1 µM, first compound 3.16 µM
[30] = second compound 1 µM, first compound 10 µM
[31] = second compound 3.16 µM, first compound 0.0316 µM
[32] = second compound 3.16 µM, first compound 0.1 µM
[33] = second compound 3.16 µM, first compound 0.316 µM
[34] = second compound 3.16 µM, first compound 1 µM
[35] = second compound 3.16 µM, first compound 3.16 µM
[36] = second compound 3.16 µM, first compound 10 µM
[37] = second compound 10 µM, first compound 0.0316 µM
[38] = second compound 10 µM, first compound 0.1 µM
[39] = second compound 10 µM, first compound 0.316 µM
[40] = second compound 10 µM, first compound 1 µM
[41] = second compound 10 µM, first compound 3.16 µM
[42] = second compound 10 µM, first compound 10 µM
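Further: spheroids exposed to agents for seven days before readout.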

Nc1ccccc1NC(=O)c1ccc(CNC(=O)OCc2cccnc2)cc1 + CNC(=O)c1ccc(Nc2nc(OC3CCCC3)c3c(-c4ccc5nc(C)oc5c4)c[nH]c3n2)c(OC)c1
0.184 µM: IC50 [4]
0.0316 µM: IC50 [6]
3.31 µM: IC50 [5]
active: viability, T/C [36] 7.27% | viability, T/C [42] 4.45%
inactive: viability, T/C [7] 97.7% | viability, T/C [8] 114% | viability, T/C [9] 125% | viability, T/C [10] 138% | viability, T/C [11] 101% | viability, T/C [12] 45.6% | viability, T/C [13] 59.1% | viability, T/C [14] 55% | viability, T/C [15] 61.9% | viability, T/C [16] 83.7% | viability, T/C [17] 102% | viability, T/C [18] 32.3% | viability, T/C [19] 50.8% | viability, T/C [20] 51% | viability, T/C [21] 49% | viability, T/C [22] 73.3% | viability, T/C [23] 94.1% | viability, T/C [24] 22.5% | viability, T/C [25] 42.9% | viability, T/C [26] 48.7% | viability, T/C [27] 47.4% | viability, T/C [28] 60.4% | viability, T/C [29] 81.8% | viability, T/C [30] 12.5% | viability, T/C [31] 44.6% | viability, T/C [32] 45.5% | viability, T/C [33] 45.8% | viability, T/C [34] 56.5% | viability, T/C [35] 67.3% | viability, T/C [37] 48.6% | viability, T/C [38] 41.5% | viability, T/C [39] 44.2% | viability, T/C [40] 54.3% | viability, T/C [41] 57.6%
> 10 µM: IC50 [2] | IC50 [3]
9.14 µM: IC50 [1]

Nc1ccn(C2OC(CO)C(O)C2(F)F)c(=O)n1 (stereo unspecified) + CN1CCN(c2cc(C(=O)Nc3cc4cc(-c5cnn(C)c5)ccc4cn3)ccn2)CC1
inactive: viability, T/C [7] 71.5% | viability, T/C [8] 57.1% | viability, T/C [9] 55.4% | viability, T/C [10] 58.4% | viability, T/C [11] 59% | viability, T/C [12] 62.9% | viability, T/C [13] 58.3% | viability, T/C [14] 48.6% | viability, T/C [15] 52.9% | viability, T/C [16] 56.8% | viability, T/C [17] 51.9% | viability, T/C [18] 65.2% | viability, T/C [19] 28.5% | viability, T/C [20] 31.5% | viability, T/C [21] 23.9% | viability, T/C [22] 35.1% | viability, T/C [23] 36.1% | viability, T/C [24] 29.3%
< 0.0316 µM: IC50 [3] | IC50 [4] | IC50 [5] | IC50 [6]
active: viability, T/C [25] 5.39% | viability, T/C [26] 3.49% | viability, T/C [27] 4.39% | viability, T/C [28] 4.7% | viability, T/C [29] 3.75% | viability, T/C [30] 3.77% | viability, T/C [31] 8.67% | viability, T/C [32] 5.79% | viability, T/C [33] 7.19% | viability, T/C [34] 5% | viability, T/C [35] 7.97% | viability, T/C [36] 3.35% | viability, T/C [37] 4.52% | viability, T/C [38] 4.25% | viability, T/C [39] 3.92% | viability, T/C [40] 6.65% | viability, T/C [41] 2.05% | viability, T/C [42] 1.36%
> 10 µM: IC50 [1] | IC50 [2]

C=CC(=O)N1CCN(c2nc(=O)n(-c3c(C)ccnc3C(C)C)c3nc(-c4c(O)cccc4F)c(F)cc23)C(C)C1 (stereo unspecified)
> 10 µM: IC50 (curve of compound)
inactive: viability, T/C (compound 0.0316 µM) 88.8% and 84.2% | viability, T/C (compound 0.1 µM) 95.5% and 87.3% | viability, T/C (compound 0.316 µM) 92.8% and 92.9% | viability, T/C (compound 1 µM) 113% and 101% | viability, T/C (compound 3.16 µM) 124% and 132% | viability, T/C (compound 10 µM) 118% and 124%
